Measurements from patent publication US7176237B2, “Tricyclic-bis-enone derivatives and methods of use thereof” (The Trustees of Dartmouth College, priority 2002, dated 2007).
Like-named read-outs stand apart in the source and are kept apart here.

Assays:
[1] = test system: NO production induced by IFN-γ in mouse macrophages; experiment: iNOS assay: inhibition of NO production induced by IFN-γ in mouse macrophages; format: cell-based; settings: for IC50: Macrophage
[2] = test system: COX-2 mRNA in RAW 264.7 cells; experiment: Suppression of COX-2 mRNA formation in RAW 264.7 cells; format: cell-based
Method: (§1) Standard methodology already in place in the inventors laboratory (Suh et al., 1998, 1999, incorporated herein by reference) can be used to evaluate the biological activity of newly synthesized TBEs using suppression of de novo synthesis of iNOS and COX-2 as endpoints. Briefly, primary mouse macrophages or RAW264.7 cells can be cultured under standard conditions and stimulated with either interferon-γ or lipopolysaccharide (LPS). TBEs are added to cell cultures at the same time as inducers. Nitric oxide production in cell culture supernatants can be measured as nitrite accumulation by the Griess reaction. Analysis of levels of iNOS protein in lysates of primary macrophages or RAW cells can be done by Western blot analysis, while levels of iNOS mRNA can be done by routine Northern blot analysis. Prostaglandin E2 production is measured with a commercially available ELISA assay kit, and […] protein and mRNA levels can measured by routine Western and Northern blot analysis, respectively. All these methods are well known in the art.

[3] = test system: NRP-152 prostate epithelial cells; experiment: Inhibition of proliferation of NRP-152 prostate epithelial cells; format: cell-based; settings: Rattus norvegicus, Epithelial cell, read-out: IC50 level, inhibition of proliferation
[4] = test system: iNOS mRNA in RAW 264.7 cells; experiment: Suppression of iNOS mRNA formation in RAW 264.7 cells; format: cell-based
Method: as §1

[5] = test system: MCF-7 breast cancer cells (ER-positive); experiment: Inhibition of estrogen-stimulated growth of MCF-7 breast cancer cells; format: cell-based, human
[6] = test system: activation of macrophages in CD-1 mice; format: in vivo
[7] = test system: several cancer cell lines; experiment: Inhibitory activity against several cancer cell lines (data not shown); format: cell-based
[8] = blocking of induction of iNOS by IFN-γ, NO production in mouse macrophages, read-out: Activity IC50

Structure (SMILES): CC1(C)C(=O)C(C#N)=C[C@]2(C)C3=CCC[C@@H](O)[C@]3(C)CC[C@@H]12 (racemic) [(±)-TBE-1]
- IC50 [1, 8]: 310 nM

Structure (SMILES): CC(=O)O[C@@H]1CCC=C2[C@@]3(C)C=C(C#N)C(=O)C(C)(C)[C@@H]3CC[C@]21C (racemic) [(±)-TBE-2]
- IC50 [1, 8]: 480 nM

Structure (SMILES): CC(=O)O[C@@H]1CC(=O)C=C2[C@@]3(C)C=C(C#N)C(=O)C(C)(C)[C@@H]3CC[C@]21C (racemic) [(±)-TBE-3]
- potency, times less than CDDO (COX-2 mRNA) ([2]; RAW cells): about 10 times
- formation of COX-2 mRNA ([2]; at 1 μM in RAW cells): suppresses
- IC50 [1, 8]: 53 nM
- IC50 [3]: ~100 nM
- potency, times less than CDDO (iNOS mRNA) ([4]; RAW cells): about 10 times
- formation of iNOS mRNA ([4]; at 1 μM in RAW cells): suppresses

Structure (SMILES): CC1(C)C(=O)C(C#N)=C[C@]2(C)C3=CC(=O)C[C@@H](O)[C@]3(C)CC[C@@H]12 (racemic) [(±)-TBE-4]
- IC50 [1, 8]: 75 nM

Structure (SMILES): CC1(C)C(=O)C(C#N)=C[C@]2(C)C3=CC(=O)C=C[C@]3(C)CC[C@@H]12 (racemic) [(±)-TBE-5]
- IC50 ([1]; NO production induced by IFN-γ in mouse macrophages, order-of-magnitude level, read-out: IC50 level stated in text): ~10 nM
- IC50 [1, 8]: 61 nM
- IC50 [3]: ~100 nM

Structure (SMILES): COC(=O)C1=C[C@]2(C)CC[C@H]3C(C)(C)C(=O)C(C#N)=C[C@]3(C)C2=CC1=O (racemic) [(±)-TBE-6]
- IC50 [1, 8]: 91 nM

Structure (SMILES): CC1(C)C(=O)C(C#N)=C[C@]2(C)C3=CC(=O)C(C(=O)O)=C[C@]3(C)CC[C@@H]12 (racemic) [(±)-TBE-7]
- IC50 [1, 8]: 1600 nM

Structure (SMILES): CC1(C)C(=O)C(C#N)=C[C@]2(C)C3=CC(=O)C(C(N)=O)=C[C@]3(C)CC[C@@H]12 (racemic) [(±)-TBE-8]
- IC50 [1, 8]: 61 nM

Structure (SMILES): CC1(C)C(=O)C(C#N)=C[C@]2(C)C3=CC(=O)C(C#N)=C[C@]3(C)CC[C@@H]12 (racemic) [(±)-TBE-9]
- potency, times more than TBE-5 [5]: about 30 times
- concentration range of dose-dependent inhibition of estrogen-stimulated growth ([5]; MCF-7 (ER-positive)): 10 to 1000 nM
- times more potent than TBE-5 [1]: ~30 times
- IC50 [1, 8]: 2.1 nM
- IC50 ([1]; Mus musculus, iNOS assay, order-of-magnitude level, read-out: IC50 level stated in text): ~1 nM
- potency in iNOS assay, statement in words ([1]; iNOS assay): highest potency
- times more potent than hydrocortisone ([1]; iNOS assay): about 5 times
- signs of toxicity ([6]; 15 and 30 mg/kg oral, mouse): no signs of toxicity
- oral activity in vivo ([6]; 15 and 30 mg/kg, administered once, oral, mouse): orally active
- activation of macrophages in mice ([6]; CD-1 mice): blocks the activation of macrophages
- in vivo potency compared with hydrocortisone ([6]; mouse peritoneal inflammation): much more potent than hydrocortisone

Structure (SMILES): CC1(C)C(=O)C(C#N)=C[C@]2(C)C3=CC(=O)CC[C@]3(C)CC[C@@H]12 (racemic) [(±)-TBE-10]
- times more potent than TBE-5 [1]: about 3 times
- IC50 [1, 8]: 19 nM

Structure (SMILES): CC1(C)C(=O)C(C#N)=C[C@@]2(C)C3=CC(=O)C=C[C@@]3(C)CC[C@H]12 [(+)-TBE-5]
- IC50 [1, 8]: 64 nM
- potency in iNOS assay, statement in words ([1]; iNOS assay): same potency
- inhibitory activity against several cancer cell lines, enantiomers compared [7]: same inhibitory activity

Structure (SMILES): CC1(C)C(=O)C(C#N)=C[C@]2(C)C3=CC(=O)C=C[C@]3(C)CC[C@@H]12 [(−)-TBE-5]
- IC50 [1, 8]: 58 nM
- potency in iNOS assay, statement in words ([1]; iNOS assay): same potency
- inhibitory activity against several cancer cell lines, enantiomers compared [7]: same inhibitory activity

Structure (SMILES): C[C@]12CCC(=O)C=C1CC[C@@H]1[C@@H]2[C@@H](O)C[C@@]2(C)[C@H]1CC[C@]2(O)C(=O)CO [Hydrocortisone, reference compound]
- IC50 [1, 8]: 10 nM

Structure (SMILES): CC1(C)CC[C@]2(C(=O)O)CC[C@]3(C)C(=CC[C@@H]4[C@@]5(C)CC[C@H](O)C(C)(C)[C@@H]5CC[C@]43C)[C@@H]2C1 [Oleanolic acid, reference compound]
- IC50 [1, 8]: > 40000 nM
